Laboratory results published in PMC6540222, “Small Molecule Inhibitors of KDM5 Histone Demethylases Increase the Radiosensitivity of Breast Cancer Cells Overexpressing JARID1B” (Molecules, 2019).

Experiments:
Type in all cases: cell-based, human
[1] = tested on: MCF-7 cells; assay: Flow-cytometry analysis of cell cycle distribution; conditions: for cells in G2/M / subG1 cells (possible apoptotic fraction): MCF-7, 30 μM
Procedure: Flow-cytometry analysis of DNA content was carried out using an EPICS xl flow-cytometer (Beckman-Coulter, Brea, CA, USA). DMSO and inhibitor treated MCF-7 cells were trypsinized, pelleted, washed with PBS and finally resuspended in PBS containing 0.1% Triton-X-100 (#A1388.1000, AppliChem, Darmstadt, Germany) and 40 μg/mL propidium iodide (#P-4170, Sigma). After 20 min incubation at 37 °C the samples were analyzed. 10,000 events were acquired for each sample. Acquired data were analyzed using the WinMDI software by Joe Trotter, available at http://facs.scripps.edu.

[2] = tested on: AhR pathway in MCF-7 cells; assay: Real Time PCR of CYP1A1 and AHRR transcripts (AhR pathway); conditions: MCF-7, 10 μM
Procedure: Total RNA from treated cells was isolated using miRNeasy® mini kit (#217004, Qiagen, Venlo, Netherlands), according to producer’s protocol guidelines. One μg of total RNA was reverse-transcribed using QuantiTect® Reverse Transcription Kit (#205311, Qiagen), according to producer’s protocol guidelines (Qiagen).
Relative quantification of gene expression was performed with the 7500 Real Time PCR System (Thermo Fisher Scientific (Applied Biosystems), Waltham, MA, USA) using SensiFAST™ SYBR® Lo-ROX Kit (#BIO 94020, Bioline, London, UK). The relative amount of mRNA expression was determined by means of ΔΔCt method, using GAPDH as internal control. Primers were designed using www.ncbi.nlm.nih.gov/tools/primer-blast/ and purchased from Sigma-Aldrich. The following oligos were used: • -3′ CYP1A1 mRNA: • - Fw: 5′- […]-3′ • CYP1A1 mRNA: • - Rv: 5′- […]-3′ • AHRR mRNA: • - Fw: 5′- […]-3′ • AHRR mRNA: • - Rv: 5′- […]-3′-3′ • GAPDH mRNA: • - Fw: 5′- […]-3′ • GAPDH mRNA: • - Rv: 5′- CGTTGTCATACCAGGAAAT-3′

[3] = tested on: H3K4me3 levels in MCF-7 cells; assay: Western blotting of H3K4me3 levels in bulk chromatin; conditions: MCF-7 bulk chromatin, 1 μM, 10 μM and 30 μM, 24 h, vs DMSO
Procedure: Histone isolation was performed according to acid extraction of histones protocol of Shechter and colleagues. Histone concentration was determined by running 5 μL of samples and known concentrations of commercially available purified calf thymus histones (from Sigma Aldrich Cat. #000000010223565001) on a SDS-PAGE gel. The gel is stained with Coomassie blue G 250 (BIO-RAD Cat. #161-0786) for 1 hour at room temperature and then destained in distilled water. The gel image is acquired with ChemiDoc XRS+ Imaging System (Bio-Rad, Hercules, CA, USA) and the volumes of bands of the samples are compared to standard concentrations of calf thymus histone.
Proteins were resolved on a 12% (histones) or 5% (JARID1B) denaturing polyacrylamide gel, using either 4 μg of histone preparation or 40 μg of cell lysate. After electrophoresis, proteins were transferred on a nitrocellulose membrane (Protran™ […] NC, # 10600002, GE Healthcare (Amersham™), Chicago, IL, USA) via wet transfer method using a Bio-Rad tank. Transfer efficiency was verified via ponceau staining (#P7767, Sigma-Aldrich). Filters were blocked with either milk (#70166, Sigma-Aldrich) or bovine serum albumin (#A3069, Sigma-Aldrich) and then hybridized over night at 4 °C in gentle rotation with the following antibodies: rabbit anti-H3K4me3 (1:1000, #39915, Active Motif, RRID:AB_2687512); rabbit-anti-H3K27me3 (1:1000, #9733, Cell Signaling Technology, RRID:AB_2616029); rabbit-anti- H3K9pan-methylated (1:1000, #4473, RRID:AB_10544693); rabbit-anti-H3 ([…], Cat#1791, ABCAM, RRID:AB_302613); rabbit anti-H2AX (1:1000, Cat#7631, Cell Signaling Technology, RRID:AB_10860771), rabbit anti-Phospho-H2AX (1:1000, Cat#9718, Cell Signaling Technology, RRID:AB_2118009), rabbit anti-JARID1B (1:50, Cell Signaling Technology, Cat#3273 RRID: AB_1264191). Goat-anti-Rabbit Horseradish Peroxidase conjugated (1:10,000, #31460, Thermo Fisher Scientific, Waltham, MA, USA RRID:AB_228341) was used as secondary antibody for 1 hour hybridization at room temperature. Blots were scanned and analyzed with a ChemiDoc XRS+ Imaging System (Bio-Rad). The volumes of each band of protein was acquired using Bio-Rad’s ImageLab software by means of volume tools using global quantification. The signal for each protein was normalized to the housekeeping protein and ratios with average control values were determined. For histones as loading control was used either total histone H3 detected by a specific antibody or histone H1 levels by staining the upper part of the gel properly cut before protein transfer on nitrocellulose membrane.

Structure (SMILES) | cell cycle dynamics ([1]; MCF-7, 1 μM) | cell cycle dynamics ([1]; MCF-7, 10 μM) | cells in G2/M [1] | subG1 cells (possible apoptotic fraction) [1] | CYP1A1 and AHRR transcript levels (AhR pathway genes) [2] | H3K4me3 levels [3] | perturbation of cell cycle dynamics ([1]; MCF-7, 10 μM and 30 μM) | H3K4me3 levels ([3]; listed as RS 5033)
CCOC(=O)c1cccn1C(=O)c1cccc(NS(=O)(=O)c2ccc(OC)cc2)c1 [RS3195] | No cell cycle perturbation | slight but significant increase of G0/G1 population | clear increase of cells in G2/M | consistent increase of subG1 cells | induces the genes involved in AhR pathway | slight increase | – | –
CCOC(=O)c1ccccc1C(=O)c1cccc(NS(=O)(=O)c2ccc(OC)cc2)c1 [RS5033] | – | – | not observed | not observed | only a slight increase | more remarkable and significant increase of H3K4me3 | no significant perturbation | strong and significant increase
